Results taken from PubChem BioAssay AID270 (DTP/NCI, 2004).
“And” between values parts separate entries of the source, which are not always exact repeats. Equal entries are not always repeated. Records with an inconclusive call do not appear.

System: BDF1 mice, s.c. Lewis lung carcinoma, T/C %
Assay: NCI In Vivo Anticancer Drug Screen. Data for tumor model Lewis Lung Carcinoma (subcutaneous) in B6D2F1 (BDF1) mice
Summary of the method: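 Antitumor effect in vivo is scored from survival or tumor burden, reported as treated relative to vehicle controls.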

CCOc1ccc2nc(S(N)(=O)=O)sc2c1
T/C (endpoint: mean tumor weight, dose: 25.0 mg/kg/injection, schedule: Q01DX011 (ip), vehicle: carboxymethylcellulose (CMC), higher = larger tumour): 79 % of control
T/C (endpoint: mean tumor weight, dose: 50.0 mg/kg/injection, schedule: Q01DX011 (ip), vehicle: carboxymethylcellulose (CMC), higher = larger tumour): 122 % of control
T/C (endpoint: mean tumor weight, dose: 100.0 mg/kg/injection, schedule: Q01DX011 (ip), vehicle: carboxymethylcellulose (CMC), higher = larger tumour): 38 % of control

CCCCOP(=O)(OCCCC)c1ccccc1
T/C (endpoint: mean tumor weight, dose: 104.0 mg/kg/injection, schedule: Q01DX011 (ip), vehicle: other, higher = larger tumour): 93 % of control
T/C (endpoint: mean tumor weight, dose: 233.0 mg/kg/injection, schedule: Q01DX011 (ip), vehicle: other, higher = larger tumour): 66 % of control

CCN(CC)CCCC(C)Nc1c2ccc(Cl)cc2nc2ccc(OC)cc12 (centres undefined)
T/C (endpoint: median survival time, dose: 8.0 mg/kg/injection, schedule: Q01DX009 (ip), vehicle: saline, higher = longer survival): 103 % of control
T/C (endpoint: median survival time, dose: 8.0 mg/kg/injection, schedule: Q01DX009 (ip), vehicle: suspension in saline, higher = longer survival): 95 % of control
T/C (endpoint: median survival time, dose: 16.0 mg/kg/injection, schedule: Q01DX009 (ip), vehicle: saline, higher = longer survival): 101 % of control
T/C (endpoint: median survival time, dose: 16.0 mg/kg/injection, schedule: Q01DX009 (ip), vehicle: suspension in saline, higher = longer survival): 113 % of control
T/C (endpoint: median survival time, dose: 32.0 mg/kg/injection, schedule: Q01DX009 (ip), vehicle: saline with Tween-80, higher = longer survival): 163 % of control
T/C (endpoint: median survival time, dose: 32.0 mg/kg/injection, schedule: Q01DX009 (ip), vehicle: suspension in saline, higher = longer survival): 104 % of control
T/C (endpoint: median survival time, dose: 64.0 mg/kg/injection, schedule: Q01DX009 (ip), vehicle: saline with Tween-80, higher = longer survival): 112 % of control
T/C (endpoint: median survival time, dose: 64.0 mg/kg/injection, schedule: Q01DX009 (ip), vehicle: saline, higher = longer survival): 101 % of control
T/C (endpoint: median survival time, dose: 64.0 mg/kg/injection, schedule: Q01DX009 (ip), vehicle: suspension in saline, higher = longer survival): 105 % of control

CCOC(N)=O
T/C (endpoint: mean tumor weight, dose: 60.0 mg/kg/injection, schedule: Q01DX011 (ip), vehicle: saline, higher = larger tumour): 119 % of control
T/C (endpoint: mean tumor weight, dose: 100.0 mg/kg/injection, schedule: Q01DX011 (ip), vehicle: saline, higher = larger tumour): 90 % of control
T/C (endpoint: mean tumor weight, dose: 125.0 mg/kg/injection, schedule: Q01DX011 (ip), vehicle: saline, higher = larger tumour): 123 % of control
T/C (endpoint: mean tumor weight, dose: 200.0 mg/kg/injection, schedule: Q01DX011 (ip), vehicle: saline, higher = larger tumour): 60 % of control and 67 % of control and 69 % of control
T/C (endpoint: mean tumor weight, dose: 250.0 mg/kg/injection, schedule: Q01DX011 (ip), vehicle: saline, higher = larger tumour): 62 % of control
T/C (endpoint: mean tumor weight, dose: 400.0 mg/kg/injection, schedule: Q01DX011 (ip), vehicle: saline, higher = larger tumour): 33 % of control and 41 % of control and 56 % of control
T/C (endpoint: mean tumor weight, dose: 600.0 mg/kg/injection, schedule: Q01DX011 (ip), vehicle: saline, higher = larger tumour): 38 % of control

O=NN(CCCl)C(=O)NC1C2CC3CC(C2)CC1C3 (centres undefined)
T/C (endpoint: median survival time, dose: 10.0 mg/kg/injection, schedule: Q01DX001 (ip), vehicle: Klucel (hydroxypropylcellulose) (HPC), higher = longer survival): 99 % of control and 111 % of control
T/C (endpoint: median survival time, dose: 20.0 mg/kg/injection, schedule: Q01DX001 (ip), vehicle: Klucel (hydroxypropylcellulose) (HPC), higher = longer survival): 100 % of control
T/C (endpoint: median survival time, dose: 25.0 mg/kg/injection, schedule: Q01DX001 (ip), vehicle: saline with Tween-80, higher = longer survival): 102 % of control
T/C (endpoint: median survival time, dose: 38.0 mg/kg/injection, schedule: Q01DX001 (ip), vehicle: saline with Tween-80, higher = longer survival): 101 % of control
T/C (endpoint: median survival time, dose: 40.0 mg/kg/injection, schedule: Q01DX001 (ip), vehicle: Klucel (hydroxypropylcellulose) (HPC), higher = longer survival): 106 % of control
T/C (endpoint: median survival time, dose: 57.0 mg/kg/injection, schedule: Q01DX001 (ip), vehicle: saline with Tween-80, higher = longer survival): 96 % of control
T/C (endpoint: median survival time, dose: 80.0 mg/kg/injection, schedule: Q01DX001 (ip), vehicle: Klucel (hydroxypropylcellulose) (HPC), higher = longer survival): 110 % of control
T/C (endpoint: median survival time, dose: 85.0 mg/kg/injection, schedule: Q01DX001 (ip), vehicle: saline with Tween-80, higher = longer survival): 99 % of control and 121 % of control
T/C (endpoint: median survival time, dose: 160.0 mg/kg/injection, schedule: Q01DX001 (ip), vehicle: Klucel (hydroxypropylcellulose) (HPC), higher = longer survival): 113 % of control
T/C (endpoint: median tumor weight (est.), dose: 25.0 mg/kg/injection, schedule: Q01DX001 (ip), vehicle: DMSO, higher = larger tumour): 39 % of control
T/C (endpoint: median tumor weight (est.), dose: 25.0 mg/kg/injection, schedule: Q01DX001 (sc), vehicle: olive oil, sesame oil, peanut oil, higher = larger tumour): 80 % of control
T/C (endpoint: median tumor weight (est.), dose: 38.0 mg/kg/injection, schedule: Q01DX001 (sc), vehicle: olive oil, sesame oil, peanut oil, higher = larger tumour): 60 % of control
T/C (endpoint: median tumor weight (est.), dose: 57.0 mg/kg/injection, schedule: Q01DX001 (ip), vehicle: DMSO, higher = larger tumour): 3 % of control
T/C (endpoint: median tumor weight (est.), dose: 57.0 mg/kg/injection, schedule: Q01DX001 (sc), vehicle: olive oil, sesame oil, peanut oil, higher = larger tumour): 52 % of control
T/C (endpoint: median tumor weight (est.), dose: 80.0 mg/kg/injection, schedule: Q01DX001 (ip), vehicle: saline with Tween-80, higher = larger tumour): 53 % of control
T/C (endpoint: median tumor weight (est.), dose: 85.0 mg/kg/injection, schedule: Q01DX001 (sc), vehicle: olive oil, sesame oil, peanut oil, higher = larger tumour): 36 % of control
T/C (endpoint: median tumor weight (est.), dose: 161.0 mg/kg/injection, schedule: Q01DX001 (ip), vehicle: saline with Tween-80, higher = larger tumour): 60 % of control
T/C (endpoint: median tumor weight (est.), dose: 215.0 mg/kg/injection, schedule: Q01DX001 (ip), vehicle: saline with Tween-80, higher = larger tumour): 7 % of control
